{"source": "patent US10913757B2", "about": "“Hydroxycinnamic derivatives, methods and uses thereof” (UNIVERSIDADE DO PORTO, priority 2016, dated 2021)", "key": {"[1]": {"assay": "ABTS radical cation scavenging activity (TAC assay)", "assay_type": "biochemical", "conditions": "ethanol", "from_the_text": "In an embodiment, the AntiOxCINs antioxidant ranking activity hierarchy was established by in vitro non-cell methods. The selected total antioxidant capacity (TAC) assays (DPPH, ABTS and GO) involved the spectrophotometric measurement of the radical absorbance decrease as a result of an in situ radical deactivation by an antioxidant. Compounds with higher antioxidant activity display lower IC50 values. […] This decrease was attenuated/ameliorated by the increment of the spacer length and/or the introduction of additional hydroxyl group in the aromatic ring.\nThe radical scavenging activity of AntiOxCINs was evaluated by means of total antioxidant capacity assays based on DPPH., ABTS.^+ and GO. radicals. All these methods involved the spectrophotometric measurement of the absorbance decrease resulting from radical (DPPH., ABTS.^+ or GO.) deactivation with an antioxidant. The results were expressed in IC50, which is defined as the minimum antioxidant concentration necessary to reduce the amount of radical by 50%. Antioxidant assays were performed in a multiplate reader (Powerwave XS Microplate Reader) of Bio-Tech instruments.\nIn an embodiment, the ABTS.^+ scavenging activity was evaluated as follows: ethanolic solutions of the test compounds with increasing concentrations (range between 10 μM and 500 μM) were prepared. ABTS.^+ radical cation solution was obtained by addition of 150 mM aqueous potassium persulfate solution (163 μL) to 10 mL of 7 mM aqueous ABTS solution followed by storage in the dark at room temperature for 16 h (2.45 mM final concentration). The solution was then diluted in ethanol to reach the absorbance of 0.72±0.02. After addition of the compound (20 μL), in triplicate, to ABTS.^+ solution (180 μL) the spectrophotometric measurement was carried out each minute over 15 minutes. […] Dose-response curves were established for the determination of IC50 values. Data are means±SEM of three independent experiments."}, "[2]": {"test_system": "rat liver mitochondria (RLM)", "assay": "Mitochondrial respiration of isolated RLM (Clark-type oxygen electrode)", "assay_type": "biochemical", "description": "In an embodiment, and as an example, AntiOxCINs and MitoQ toxicity effects on the mitochondrial bioenergetics, namely on RLM ΔΨ and mitochondrial respiration parameters, were measured. The […] represents the main component of the electrochemical gradient generated by mitochondrial respiration and accounts for more than 90% of the total available energy. For mitochondrial respiration assays, glutamate/malate (for complex I) and succinate (for complex II) were used as substrates. In addition, the mitochondrial oxidative phosphorylation coupling index, known as respiratory control ratio (RCR, state 3/state 4 respiration) and ADP/O index (the coupling between ATP synthesis and oxygen consumption) were also calculated. AntiOxCINs and MitoQ were tested at antioxidant-relevant concentrations, with 10 μM being the highest concentration.\nIn an embodiment, the evaluation of AntiOxCINs functional mitochondrial toxicity profile was performed in rat liver mitochondria (RLM). […] The protein concentration was determined by the biuret assay using BSA as a standard.\nIn an embodiment, the evaluation of AntiOxCINs effect on mitochondrial respiration was performed as follows: the respiration of isolated RLM was evaluated polarographically with a Clark-type oxygen electrode, connected to a suitable recorder in a 1 mL thermostated water-jacketed chamber with magnetic stirring, at 37° C.^1. […] Increasing concentrations of AntiOxCINs (2.5-10 μM) were added to the reaction medium containing respiratory substrates glutamate/malate (10 mM and 5 mM respectively) or succinate (5 mM) and RLM (1 mg) and allowed to incubate for a 5 min period prior to the assay. State 2 was considered as the respiration during the 5 min incubation time with AntiOxCINs. […] State 4 was determined after ADP phosphorylation finished. Subsequent addition of oligomycin (2 μg/ml) inhibited ATP-synthase and originated the oligomycin-inhibition respiration state. Finally, 1 μM FCCP was added to induce uncoupled respiration."}, "[3]": {"assay": "Redox properties by differential pulse and cyclic voltammetry", "assay_type": "physicochemical", "description": "In an embodiment, and as an example, AntiOxCINs redox properties were evaluated (Table 1). Redox potentials are correlated with the ability of an antioxidant to donate a hydrogen atom and/or an electron to a free radical.\nHowever, for pyrogallol derivatives (AntiOxCIN4, AntiOxCIN5 and AntiOxCIN7), a significant decrease in redox potentials was observed (Ep=0.034-0.057 V) (Table 1).\nThe voltammograms presented a diffusion peak and an adsorption post-peak at a more anodic potential correspondent to the oxidation of dissolved and adsorbed forms of the compounds, respectively. The oxidation waves can be related to the oxidation process of the pyrogallol moiety. The cyclic voltammograms also show the presence of two overlapped anodic peaks. The anodic peaks appeared to correspond to irreversible processes as any distinct reduction wave was not seen on the cathodic sweep. The existence of the additional phenolic group in the pyrogallol systems, when compared with the catechol ones, seems to influence the stabilization of the semiquinone intermediate and in turn the oxidative mechanism.\nIn an embodiment, the electrochemical analytical data was obtained using a computer controlled potentiostat Autolab PGSTAT302N (Metrohm Autolab, Utrecht, Netherlands). Generally, cyclic voltammetry (CV) data was acquired at a scan rate of 50 mVs^−1. Differential pulse voltammetry (DPV) results were acquired at a step potential of 4 mV, pulse amplitude of 50 mV and scan rate of 8 mVs^−1. The electrochemical signals were monitored by the General Purpose Electrochemical System (GPES) version 4.9, software package. All electrochemical experiments were performed at room temperature in an electrochemical cell that was placed in a Faraday cage in order to minimize the contribution of background noise to the analytical signal.\nIn an embodiment, the process of evaluation of AntiOxCINs redox properties was conducted as follows: stock solutions of each compound (10 mM) were prepared by dissolving the appropriate amount in ethanol. The voltammetric working solutions were prepared in the electrochemical cell, at a final concentration of 0.1 mM. The […] supporting electrolyte was prepared by diluting […] to 100 mL. Voltammetric data was acquired in a three-electrode system consisting of a glassy carbon electrode (GCE, d=2 mm) as working electrode, a counter electrode of platinum wire and a saturated Ag/AgCl reference electrode. In an embodiment, the evaluation of AntiOxCINs lipophilic properties was performed as follows: the electrochemical cell was a four-electrode system with arrays of micro liquid-liquid interfaces (μlTIES) containing two Ag/AgCl reference electrodes and two counter electrodes of Pt, one in each phase. The microporous membrane was sealed with a fluorosilicone sealant (Dow Corning 730) onto a glass cylinder which was filled with 4.0 mL of the aqueous phase, where the aliquots of AntiOxCINs solutions were added. The membrane was then immersed into the organic phase contained in the cell. The organic phase reference solution (a 2 mM BTPPACI+2 mM NaCl aqueous solution) was mechanically stabilized The aqueous supporting electrolyte solution was a Tris-HCl buffer 10 mM pH 7.0."}}, "data": [{"smiles": "CS(=O)(=O)[O-].O=C(/C=C/c1cc(O)c(O)c(O)c1)NCCCCCCCC[P+](c1ccccc1)(c1ccccc1)c1ccccc1", "note": "[AntiOxCIN5, (E)-(8-(3-(3,4,5-trihydroxyphenyl)acrylamido)octyl)triphenylphosphonium methanesulfonate]", "values": [{"measurement": "IC50", "setting": "[1]", "result": 8.7, "unit": "µM"}, {"measurement": "effect on state 3 respiration", "setting": "[2]; all tested concentrations (2.5-10 μM), FIG. 6B-H", "result": "increase"}, {"measurement": "ADP/O", "setting": "[2]; glutamate/malate, 2.5 μM", "result": "2.4 ± 0.1"}, {"measurement": "RCR (respiratory control ratio, state 3/state 4)", "setting": "[2]; glutamate/malate, 2.5 μM", "result": "3.7 ± 0.4"}, {"measurement": "ADP/O", "setting": "[2]; glutamate/malate, 5 μM", "result": "2.5 ± 0.1"}, {"measurement": "RCR (respiratory control ratio, state 3/state 4)", "setting": "[2]; glutamate/malate, 5 μM", "result": "3.7 ± 0.4"}, {"measurement": "ADP/O", "setting": "[2]; glutamate/malate, 10 μM", "result": "2.5 ± 0.1"}, {"measurement": "RCR (respiratory control ratio, state 3/state 4)", "setting": "[2]; glutamate/malate, 10 μM", "result": "3.2 ± 0.1"}, {"measurement": "ADP/O", "setting": "[2]; succinate, 2.5 μM", "result": "1.6 ± 0.1"}, {"measurement": "RCR (respiratory control ratio, state 3/state 4)", "setting": "[2]; succinate, 2.5 μM", "result": "4.2 ± 0.4"}, {"measurement": "ADP/O", "setting": "[2]; succinate, 5 μM", "result": "1.5 ± 0.1"}, {"measurement": "RCR (respiratory control ratio, state 3/state 4)", "setting": "[2]; succinate, 5 μM", "result": "4.4 ± 0.8"}, {"measurement": "ADP/O", "setting": "[2]; succinate, 10 μM", "result": "1.6 ± 0.1"}, {"measurement": "RCR (respiratory control ratio, state 3/state 4)", "setting": "[2]; succinate, 10 μM", "result": "4.0 ± 0.8"}, {"measurement": "reversibility of the oxidation reaction", "setting": "[3]; cyclic voltammetry, physiological pH", "result": "irreversible oxidation reaction"}, {"measurement": "Ep (redox potential)", "setting": "[3]; physiological pH (7.4), voltammetry, listed as AntiOxClN5, methanesulfonate", "result": 0.046, "unit": "V"}]}]}
